# According to patent publication US11180504B2 (ORCHID PHARMA LTD., priority 2016, dated 2021):
# How the values were obtained:
# [1] = tested on: methicillin-sensitive Staphylococcus aureus; assay: MIC by broth micro-dilution (CLSI), methicillin-sensitive S. aureus; assay type: cell-based; details: Staphylococcus aureus, ATCC 29213 / MSSA, MSSA S. aureus ATCC29213; read-out: MIC
# [2] = tested on: carbapenem sensitive Escherichia coli; assay: MIC by broth micro-dilution (CLSI), carbapenem sensitive E. coli; assay type: cell-based; details: Escherichia coli, ATCC25922, ESBL −ve E. coli ATCC25922; read-out: MIC
# [3] = tested on: carbapenemase producing K. pneumoniae; assay: MIC by broth micro-dilution (CLSI), carbapenemase producing K. pneumoniae; assay type: cell-based, Klebsiella pneumoniae; details: Klebsiella pneumoniae, ATCCBAA1705, KPC-2 K. pneumoniae ATCC BAA-1705; read-out: MIC
# [4] = tested on: carbapenem sensitive Pseudomonas aeruginosa; assay: MIC by broth micro-dilution (CLSI), carbapenem sensitive P. aeruginosa; assay type: cell-based; details: Pseudomonas aeruginosa, ATCC27853, Meropenem susceptible P. aeruginosa ATCC27853; read-out: MIC
MIC [1] [µg/mL],MIC [2] [µg/mL],MIC [3] [µg/mL],MIC [4] [µg/mL],SMILES
16,2,8,8,"C[C@@H](NC(=O)Cn1cnnn1)[C@H]1C(=O)N2C(C(=O)O)=C(S[C@@H]3CN[C@H](C(=O)N4CCC(N5CC(N)C5)CC4)C3)[C@H](C)[C@H]12 [Example 342, (4R,5S,6R)-6-((R) - 1-(2-(1H-tetrazol-1-yl)acetamido)ethyl)-3-((3S,5S)-5-(4-(3-aminoazetidin-1-yl)piperidine-1-carbonyl)pyrrolidin-3-ylthino)-4-methyl-7-oxo-1-azabicyclo[3.2.0]hept-2-ene-2-carboxylic acid]"
16,2,8,8,"C[C@@H](NC(=O)Cn1cnnn1)[C@H]1C(=O)N2C(C(=O)O)=C(S[C@@H]3CN[C@H](C(=O)N4CCC(N5CC(CN)C5)CC4)C3)[C@H](C)[C@H]12 [Example 343, (4R,5S,6R)-6-((R) - 1-(2-(1H-tetrazol-1-yl)acetamido)ethyl)-3-((3S,5S)-5-(4-(3-(aminomethyl)azetidin-1-yl)piperidine-1-carbonyl)pyrrolidin-3-ylthio)-4-methyl-7-oxo-1-azabicycio[3.2.0]hept-2-ene-2-carboxylic acid]"
16,1,16,16,"C[C@@H](NC(=O)Cn1cnnn1)[C@H]1C(=O)N2C(C(=O)O)=C(S[C@@H]3CN[C@H](C(=O)N4CC(F)(CN)C4)C3)[C@H](C)[C@H]12 [Example 344, (4R,5S,6R)-6-((R) - 1-(2-(1H-tetrazol-1-yl)acetamido)ethyl)-3-((3S,5S)-5-(3-(aminomethyl)-3-fluoroazetidine-1-carbonyl)pyrrolidin-3-ylthio)-4-methyl-7-oxo-1-azabicyclo[3.2.0]hept-2-ene-2-carboxylic acid]"
64,8,32,128,"C[C@@H](NC(=O)Cn1cnnn1)[C@H]1C(=O)N2C(C(=O)O)=C(S[C@@H]3CN[C@H](C(=O)N4C[C@H]5CC[C@@H](C4)[C@H]5N)C3)[C@H](C)[C@H]12 [Example 345, (4R,5S,6R)-6-((R) - 1-(2-(1H-tetrazol-1-yl)acetamido)ethyl)-3-((3S,5S)-5-((1R,5S,8S)-8-amino-3-azabicyclo[3.2.0]octane-3-carbonyl)pyrrolidin-3-ylthio)-4-methyl-7-oxo-1-azabicyclo[3.2.0]hept-2-ene-2-carboxylic acid]"
16,1,8,16,"C[C@@H](NC(=O)Cn1cnnn1)[C@H]1C(=O)N2C(C(=O)O)=C(S[C@@H]3CN[C@H](C(=O)N4CCC(F)(CN)CC4)C3)[C@H](C)[C@H]12 [Example 346, (4R,5S,6R)-6-((R) - 1-(2-(1H-tetrazol-1-yl)acetamido)ethyl)-3-((3S,5S)-5-(4-(aminomethyl)-4-fluoropiperidine-1-carbonyl)pyrrolidin-3-ylthio)-4-methyl-7-oxo-1-azabicyclo[3.2.0]hept-2-ene-2-carboxylic acid]"
4,0.5,16,> 128,"C[C@@H](NC(=O)Cn1nnnc1C(F)(F)F)[C@H]1C(=O)N2C(C(=O)O)=C(S[C@@H]3CN[C@H](C(=O)N4CC[C@@H](N)C4)C3)[C@H](C)[C@H]12 [Example 347, (4R,5S,6R)-3-((3S,5S)-5-((R)-3-aminopyrrolidine-1-carbonyl)pyrrolidin-3-ylthio)-4-methyl-7-oxo-6-((R)-1-(2-(5-(trifluoromethyl)-1H-tetrazol-1-yl)acetamido)ethyl)-1-azabicyclo[3.2.0]hept-2-ene-2-carboxylic acid]"
8,1,16,> 128,"C[C@@H](NC(=O)Cn1nnnc1C(F)(F)F)[C@H]1C(=O)N2C(C(=O)O)=C(S[C@@H]3CN[C@H](C(=O)N(C)C)C3)[C@H](C)[C@H]12 [Example 348, (4R,5S,6R)-3-((3S,5S)-5-(dimethylcarbamoyl)pyrrolidin-3-ylthio)-4-methyl-7-oxo-6-((R)-1-(2-(5-(trifluoromethyl)-1H-tetrazol-1-yl)acetamido)ethyl)-1-azabicyclo[3.2.0]hept-2-ene-2-carboxylic acid]"
4,0.25,4,32,"C[C@@H](NC(=O)Cn1nnnc1C(F)F)[C@H]1C(=O)N2C(C(=O)O)=C(S[C@@H]3CN[C@H](C(=O)N4CC[C@@H](N)C4)C3)[C@H](C)[C@H]12 [Example 349, (4R,5S,6R)-3-((3S,5S)-5-((R)-3-aminopyrrolidine-1-carbonyl)pyrrolidin-3-ylthio)-6-((R)-1-(2-(5-(difluoromethyl)-1H-tetrazol-1-yl)acetamido)ethyl)-4-methyl-7-oxo-1-azabicyclo[3.2.0]hept-2-ene-2-carboxylic acid]"
2,0.25,1,128,"C[C@@H](NC(=O)Cn1nnnc1C(F)F)[C@H]1C(=O)N2C(C(=O)O)=C(S[C@@H]3CN[C@H](C(=O)N(C)C)C3)[C@H](C)[C@H]12 [Example 350, (4R,5S,6R)-6-((R)-1-(2-(5-(difluoromethyl)-1H-tetrazol-1-yl)acetamido)ethyl)-3-((3S,5S)-5-(dimethylcarbamoyl)pyrrolidin-3-ylthio)-4-methyl-7-oxo-1-azabicyclo[3.2.0]hept-2-ene-2-carboxylic acid]"
16,1,4,> 128,"C[C@@H](NC(=O)Cn1cnnn1)[C@H]1C(=O)N2C(C(=O)O)=C(S[C@@H]3CN[C@H](C(=O)N4CCC5(CC4)CC(F)(F)CN5)C3)[C@H](C)[C@H]12 [Example 351, (4R,5S,6R)-6-((R)-1-(2-(1H-tetrazol-1-yl)acetamido)ethyl)-3-((3S,5S)-5-(3,3-difluoro-1,8-diazaspiro[4.5]decane-8-carbonyl)pyrrolidin-3-ylthio)-4-methyl-7-oxo-1-azabicyclo[3.2.0]hept-2-ene-2-carboxylic acid]"
4,0.25,2,2,"C[C@@H](NC(=O)Cn1cnnn1)[C@H]1C(=O)N2C(C(=O)O)=C(S[C@@H]3CN[C@H](C(=O)N4CCC5(CCCN5)CC4)C3)[C@H](C)[C@H]12 [Example 352, (4R,5S,6R)-3-((3S,5S)-5-(1,8-diazaspiro[4.5]decane-8-carbonyl)pyrrolidin-3-ylthio)-6-((R)-1-(2-(1H-tetrazol-1-yl)acetamido)ethyl)-4-methyl-7-oxo-1-azabicyclo[3.2.0]hept-2-ene-2-carboxylic acid]"
16,0.25,2,16,"C[C@@H](NC(=O)Cn1cnnn1)[C@H]1C(=O)N2C(C(=O)O)=C(S[C@@H]3CN[C@H](C(=O)N4C[C@@H]5NCCO[C@@H]5C4)C3)[C@H](C)[C@H]12 [Example 353, (4R,5S,6R)-6-((R)-1-(2-(1H-tetrazol-1-yl)acetamido)ethyl)-4-methyl-3-((3S,5S)-5-((4aS,7aR)-octahydropyrrolo[3,4-b][1,4]oxazine-6-carbonyl)pyrrolidin-3-ylthio)-7-oxo-1-azabicyclo[3.2.0]hept-2-ene-2-carboxylic acid]"
2,0.125,1,32,C[C@@H](NC(=O)Cn1cnnn1)[C@H]1C(=O)N2C(C(=O)O)=C(S[C@@H]3CNC(CNC(=O)[C@H]4CSCN4)C3)[C@H](C)[C@H]12 (some centres unmarked) [Example 354]
4,1,16,128,"C[C@@H](NC(=O)Cn1nnnc1C(C)(C)C)[C@H]1C(=O)N2C(C(=O)O)=C(S[C@@H]3CN[C@H](C(=O)N4CC[C@@H](N)C4)C3)[C@H](C)[C@H]12 [Example 355, (4R,5S,6R)-3-((3S,5S)-5-((R)-3-aminopyrrolidine-1-carbonyl)pyrrolidin-3-ylthio)-6-((R)-1-(2-(5-tert-hutyl-1H-tetrazol-1-yl)acetamido)ethyl)-4-methyl-7-oxo-1-azabicyclo[3.2.0]hept-2-ene-2-carboxylic acid]"
4,1,16,> 128,"C[C@@H](NC(=O)Cn1nnnc1C(C)(C)C)[C@H]1C(=O)N2C(C(=O)O)=C(S[C@@H]3CN[C@H](C(=O)N(C)C)C3)[C@H](C)[C@H]12 [Example 356, (4R,5S,6R)-6-((R)-1-(2-(5-tert-butyl-1H-tetrazol-1-yl)acetamido)ethyl)-3-((3S,5S)-5-(dimethylcarbamoyl)pyrrolidin-3-ylthio)-4-methyl-7-oxo-1-azabicyclo[3.2.0]hept-2-ene-2-carboxylic acid]"
2,1,32,> 128,"C[C@@H](NC(=O)Cn1nnnc1-c1cccs1)[C@H]1C(=O)N2C(C(=O)O)=C(S[C@@H]3CN[C@H](C(=O)N(C)C)C3)[C@H](C)[C@H]12 [Example 357, (4R,5S,6R)-3-((3S,5S)-5-(dimethylcarbamoyl)pyrrolidin-3-ylthio)-4-methyl-7-oxo-6-((R)-1-(2-(5-(thiophen-2-yl)-1H-tetrazol-1-yl)acetamido)ethyl)-1-azabicyclo[3.2.0]hept-2-ene-2-carboxylic acid]"
1,1,32,> 128,"C[C@@H](NC(=O)Cn1nnnc1-c1cccs1)[C@H]1C(=O)N2C(C(=O)O)=C(S[C@@H]3CN[C@H](C(=O)N4CC[C@@H](N)C4)C3)[C@H](C)[C@H]12 [Example 358, (4R,5S,6R)-3-((3S,5S)-5-((R)-3-aminopyrrolidine-1-carbonyl)pyrrolidin-3-ylthio)-4-methyl-7-oxo-6-((R)-1-(2-(5-(thiophen-2-yl)-1H-tetrazol-1-yl)acetamido)ethyl)-1-azabicyclo[3.2.0]hept-2-ene-2-carboxylic acid]"
